Measured values as given in ChEMBL document CHEMBL1135337, “Synthesis and DNA binding properties of saturated distamycin analogues” (Bioorg Med Chem Lett, 2002).

tested on: Nucleic Acid; assay: Concentration required for 50% displacement of ethidium bromide from p[dA]p[dT] in a fluorescence intercalator displacement (FID) assay; format: nucleic-acid assay

In order of rising C50:
1. Cn1cc(NC(=O)c2cc(NC(=O)c3cc(NC=O)cn3C)cn2C)cc1C(=O)NCCC(=N)N  0.46 µM
2. N=C(N)CCNC(=O)[C@H]1C[C@H](NC(=O)[C@H]2C[C@H](NC(=O)C3C[C@H](NC=O)CN3C(=O)OCc3ccccc3)CN2C(=O)OCc2ccccc2)CN1C(=O)OCc1ccccc1 (some centres undefined)  4.7 µM
3. N=C(N)CCNC(=O)[C@@H]1C[C@@H](NC(=O)[C@@H]2C[C@@H](NC(=O)[C@@H]3C[C@@H](NC=O)CN3C(=O)OCc3ccccc3)CN2C(=O)OCc2ccccc2)CN1C(=O)OCc1ccccc1  5.1 µM
4. N=C(N)CCNC(=O)[C@H]1C[C@H](NC(=O)[C@H]2C[C@H](NC(=O)[C@H]3C[C@H](NC=O)CO3)CO2)CO1  5.4 µM
5. N=C(N)CCNC(=O)[C@@H]1C[C@@H](NC(=O)[C@@H]2C[C@@H](NC(=O)[C@@H]3C[C@@H](NC=O)CO3)CO2)CO1  5.5 µM
6. N=C(N)CCNC(=O)[C@H]1C[C@H](NC(=O)[C@H]2C[C@H](NC(=O)[C@H]3C[C@H](NC=O)CN3)CN2)CN1  6.37 µM
7. CN1C[C@@H](NC(=O)[C@H]2C[C@H](NC(=O)[C@H]3C[C@H](NC=O)CN3C)CN2C)C[C@@H]1C(=O)NCCC(=N)N  6.7 µM
8. N=C(N)CCNC(=O)[C@@H]1CC[C@@H](NC(=O)[C@@H]2CC[C@@H](NC(=O)[C@@H]3CC[C@@H](NC=O)C3)C2)C1  7.91 µM
9. N=C(N)CCNC(=O)[C@@H]1C[C@@H](NC(=O)[C@@H]2C[C@@H](NC(=O)[C@@H]3C[C@@H](NC=O)CN3)CN2)CN1  8.55 µM
